Assay results reported in ChEMBL document CHEMBL6153135, “Rational Design of a Potent, Selective, and Metabolically Stable CDK9 Inhibitor to Counteract Osimertinib Resistance through Mcl-1 Suppression and Enhanced BRD4 Co-Targeting” (J Med Chem, 2025).
The source made the active and inactive calls. The rule behind the calls is not given here.

Tests used:
[1] = Toxicity in BALB-c mouse xenografted with human NCI-H1975 cells assessed as decrease in body weight at 5 mg/kg, iv in presence of JQ1; type: organism-based; conditions: in vivo
[2] = Toxicity in BALB-c mouse xenografted with human Osimertinib-resistant HCC827 cells assessed as decrease in body weight at 5 mg/kg, iv in presence of JQ1; type: organism-based; conditions: in vivo
[3] = system: NCI-H1975; experiment: Antitumor activity against human NCI-H1975 cells xenografted in BALB-c nude mouse assessed as tumor growth inhibition at 5 mg/kg, iv; type: functional, organism-based
[4] = Half life in BALB/c mouse at 2 mg/kg, iv; type: ADME, organism-based; conditions: in vivo
[5] = Metabolic stability in pig liver microsomes assessed as half life measured for 5 to 60 mins by LC-MS/MS analysis; type: ADME, Sus scrofa, Microsome; conditions: time 5-60 min
[6] = biological target: Homeodomain-interacting protein kinase 3 (Homo sapiens) (UniProt Q9H422); experiment: Inhibition of HIPK3 (unknown origin) at 100 nM preincubated for 10 mins followed by substrate/ATP measured after 60 mins by ADP-Glo assay relative to control; conditions: time 70.0 min
Sequence of Homeodomain-interacting protein kinase 3 (Homo sapiens) (Q9H422 whole entry, looked up): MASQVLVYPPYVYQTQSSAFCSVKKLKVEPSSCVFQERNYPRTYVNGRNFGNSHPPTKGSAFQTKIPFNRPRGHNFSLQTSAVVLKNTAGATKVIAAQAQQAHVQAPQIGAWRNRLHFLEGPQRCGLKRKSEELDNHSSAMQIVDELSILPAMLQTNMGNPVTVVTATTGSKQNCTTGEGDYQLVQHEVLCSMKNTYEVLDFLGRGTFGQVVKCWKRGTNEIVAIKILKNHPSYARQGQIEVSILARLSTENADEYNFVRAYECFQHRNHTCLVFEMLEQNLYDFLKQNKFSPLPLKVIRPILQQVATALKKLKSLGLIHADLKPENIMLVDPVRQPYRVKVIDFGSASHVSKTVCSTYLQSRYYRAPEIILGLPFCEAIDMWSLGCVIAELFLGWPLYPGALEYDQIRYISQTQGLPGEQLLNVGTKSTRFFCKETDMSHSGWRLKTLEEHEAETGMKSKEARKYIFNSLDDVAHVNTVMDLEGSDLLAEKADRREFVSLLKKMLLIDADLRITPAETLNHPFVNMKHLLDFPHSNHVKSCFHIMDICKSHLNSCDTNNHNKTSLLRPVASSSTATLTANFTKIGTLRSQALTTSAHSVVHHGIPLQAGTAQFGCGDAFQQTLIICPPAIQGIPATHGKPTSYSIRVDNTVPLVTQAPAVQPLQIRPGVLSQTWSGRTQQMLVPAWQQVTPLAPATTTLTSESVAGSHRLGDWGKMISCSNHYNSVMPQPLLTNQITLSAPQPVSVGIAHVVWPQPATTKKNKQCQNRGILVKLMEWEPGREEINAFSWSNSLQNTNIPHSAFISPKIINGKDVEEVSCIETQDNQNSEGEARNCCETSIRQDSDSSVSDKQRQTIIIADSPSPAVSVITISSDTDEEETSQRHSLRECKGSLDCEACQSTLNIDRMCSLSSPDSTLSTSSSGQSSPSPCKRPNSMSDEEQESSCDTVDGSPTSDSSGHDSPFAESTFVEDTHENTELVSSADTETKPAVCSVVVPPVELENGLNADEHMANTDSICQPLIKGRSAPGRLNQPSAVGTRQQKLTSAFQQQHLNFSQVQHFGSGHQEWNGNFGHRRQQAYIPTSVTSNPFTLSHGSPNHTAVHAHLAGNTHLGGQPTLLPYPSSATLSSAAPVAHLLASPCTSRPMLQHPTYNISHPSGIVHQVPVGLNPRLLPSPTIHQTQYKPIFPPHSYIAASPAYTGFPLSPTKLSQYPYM

[7] = system: Osimertinib-resistant HCC827 cell; experiment: Inhibition of DNA replication in human Osimertinib-resistant HCC827 cells by KEGG analysis; type: functional, cell-based
[8] = system: Osimertinib-resistant HCC827 cell; experiment: Inhibition of homologous recombination repair in human Osimertinib-resistant HCC827 cells by KEGG analysis; type: functional, cell-based
[9] = Half life in Sprague-Dawley rat at 2 mg/kg, iv; type: ADME, organism-based; conditions: in vivo
[10] = system: Osimertinib-resistant NCI-H1975 cell; experiment: Anti-proliferative activity against human Osimertinib-resistant NCI-H1975 cells assessed as cell inhibition measured after 72 hrs in presence of 500 nM JQ1 by MTT assay; type: functional, cell-based
[11] = Oral bioavailability in BALB/c mouse at 15 mg/kg; type: ADME, organism-based; conditions: in vivo
[12] = system: Osimertinib-resistant NCI-H1975 cell; experiment: Induction of apoptosis in human Osimertinib-resistant NCI-H1975 cells assessed as late apoptotic cells at 0.5 uM incubated for 16 hrs by Annexin V-FITC/PI staining based flow cytometry (reference value: 1.42 %); type: functional
[13] = biological target: Cyclin-dependent kinase 9 (Homo sapiens) (UniProt P50750); experiment: Inhibition of CDK9 in human Osimertinib-resistant HCC827 cells assessed as decrease in Mcl-1 level at 100 nM incubated for 12 hrs in presence of JQ1 by Western blot analysis; type: cell-based; conditions: Osimertinib-resistant HCC827 cell
Sequence of Cyclin-dependent kinase 9 (Homo sapiens) (P50750 whole entry): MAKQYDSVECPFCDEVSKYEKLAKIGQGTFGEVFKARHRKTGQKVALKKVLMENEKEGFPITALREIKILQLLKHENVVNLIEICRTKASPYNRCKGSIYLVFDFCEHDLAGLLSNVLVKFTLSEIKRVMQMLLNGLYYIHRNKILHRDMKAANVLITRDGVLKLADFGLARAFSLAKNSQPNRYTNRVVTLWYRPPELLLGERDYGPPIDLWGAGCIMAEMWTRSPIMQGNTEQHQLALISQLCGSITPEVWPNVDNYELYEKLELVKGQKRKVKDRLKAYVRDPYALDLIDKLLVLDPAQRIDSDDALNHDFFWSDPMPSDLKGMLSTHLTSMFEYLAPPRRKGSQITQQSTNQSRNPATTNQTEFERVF

[14] = system: Lung adenocarcinoma organoid; experiment: Anti-tumor activity against patient (#2514)-derived human Lung adenocarcinoma organoid assessed as inhibition of cell viability measured after 96 hrs relative to control; type: functional, Neoplasm
[15] = Drug concentration in lung of BALB-c nude mouse xenografted with human NCI-H1975 cells at 15 mg/kg, iv measured after 30 mins by LC-MS/MS analysis; type: ADME, organism-based; conditions: read-out: Ct
[16] = system: 16HBE14o-; experiment: Anti-proliferative activity against human 16-HBE cells assessed as cell inhibition measured after 72 hrs by MTT assay; type: functional, cell-based
[17] = species: Homo sapiens; experiment: Inhibition of CDK12/Cyclin E1(unknown origin) at 100 nM preincubated for 10 mins followed by substrate/ATP measured after 60 mins by ADP-Glo assay relative to control; conditions: time 70.0 min
[18] = system: Osimertinib-resistant NCI-H1975 cell; experiment: Induction of apoptosis in human Osimertinib-resistant NCI-H1975 cells assessed as early apoptotic cells at 2 uM incubated for 16 hrs by Annexin V-FITC/PI staining based flow cytometry (reference value: 8.02 %); type: functional
[19] = biological target: Cyclin-dependent kinase 9 (Homo sapiens) (UniProt P50750); experiment: Inhibition of CDK9 in human Osimertinib-resistant HCC827 cells assessed as decrease in Mcl-1 level at 100 to 500 nM incubated for 12 hrs by Western blot analysis; type: cell-based; conditions: Osimertinib-resistant HCC827 cell, dose 100-500 nM
[20] = system: Lung adenocarcinoma organoid; experiment: Anti-tumor activity against Osimertinib-resistant patient (#0243)-derived human Lung adenocarcinoma organoid assessed as inhibition of cell viability measured after 96 hrs; type: functional, tissue-based; conditions: Neoplasm
[21] = Oral bioavailability in Sprague-Dawley rat at 20 mg/kg; type: ADME, organism-based; conditions: in vivo
[22] = Metabolic stability in human liver S9 fraction assessed as half life measured for 5 to 60 mins by LC-MS/MS analysis; type: ADME, subcellular; conditions: time 5-60 min
[23] = Apparent volume of distribution in BALB/c mouse at 2 mg/kg, iv; type: ADME, organism-based; conditions: in vivo, read-out: Vz
[24] = system: Lewis lung carcinoma cell line; experiment: Anti-proliferative activity against Lewis lung carcinoma cells assessed as cell inhibition measured after 72 hrs by MTT assay; type: functional, cell-based; conditions: Mus musculus
[25] = Clearance in Sprague-Dawley rat at 2 mg/kg, iv; type: ADME, organism-based; conditions: in vivo
[26] = Tmax in BALB/c mouse at 15 mg/kg, po; type: ADME, organism-based; conditions: in vivo
[27] = system: NCI-H1975; experiment: Antitumor activity against human NCI-H1975 cells xenografted in BALB-c nude mouse assessed as reduction in Ki-67 expression at 15 mg/kg, iv administered on every two days by IHC analysis; type: functional, organism-based
[28] = biological target: Cyclin-dependent kinase 9 (Homo sapiens) (UniProt P50750); experiment: Inhibition of CDK9 in human Osimertinib-resistant HCC827 cells assessed as decrease in Mcl-1 mRNA level in presence of JQ1 by RNA-Seq analysis; type: cell-based; conditions: Osimertinib-resistant HCC827 cell
[29] = Selectivity ratio of IC50 for anti-proliferative activity against human NCI-H1975 cells to IC50 for anti-proliferative activity against human NCI-H1975 cells in presence of JQ1; type: functional
[30] = Metabolic stability in human liver S9 fraction assessed as clearance measured for 5 to 60 mins by LC-MS/MS analysis; type: ADME, subcellular; conditions: time 5-60 min, read-out: CLH
[31] = system: NCI-H1975; experiment: Antitumor activity against human NCI-H1975 cells xenografted in BALB-c nude mouse assessed as tumor growth inhibition at 5 mg/kg, iv in presence of JQ1 relative to control; type: functional; conditions: read-out: TGI
[32] = system: Lung adenocarcinoma organoid; experiment: Anti-tumor activity against multidrug-resistant patient (#2422)-derived human Lung adenocarcinoma organoid assessed as inhibition of cell viability measured after 96 hrs; type: functional, tissue-based; conditions: Neoplasm
[33] = Toxicity in BALB-c nude mouse xenografted with human NCI-H1975 cells assessed as body weight loss at 15 mg/kg, iv administered on every two days; type: organism-based; conditions: in vivo
[34] = system: Osimertinib-resistant NCI-H1975 cell; experiment: Induction of apoptosis in human Osimertinib-resistant NCI-H1975 cells assessed as viable cells at 2 uM incubated for 16 hrs by Annexin V-FITC/PI staining based flow cytometry (reference value: 89.4 %); type: functional; conditions: read-out: Activity
[35] = AUC (0 to t) in Sprague-Dawley rat at 2 mg/kg, iv; type: ADME, organism-based; conditions: in vivo
[36] = Anti-proliferative activity against human Osimertinib-resistant HCC827 cells assessed as cell inhibition measured after 72 hrs by MTT assay; type: functional, cell-based
[37] = system: Lung adenocarcinoma organoid; experiment: Anti-tumor activity against patient (#2223)-derived human Lung adenocarcinoma organoid assessed as inhibition of cell viability measured after 96 hrs; type: functional, tissue-based; conditions: Neoplasm
[38] = AUC (0 to infinity) in Sprague-Dawley rat at 2 mg/kg, iv; type: ADME, organism-based; conditions: in vivo
[39] = biological target: Homeodomain-interacting protein kinase 1 (Homo sapiens) (UniProt Q86Z02); experiment: Inhibition of HIPK1 (unknown origin) at 100 nM preincubated for 10 mins followed by substrate/ATP measured after 60 mins by ADP-Glo assay relative to control; conditions: time 70.0 min
Sequence of Homeodomain-interacting protein kinase 1 (Homo sapiens) (Q86Z02 whole entry, looked up): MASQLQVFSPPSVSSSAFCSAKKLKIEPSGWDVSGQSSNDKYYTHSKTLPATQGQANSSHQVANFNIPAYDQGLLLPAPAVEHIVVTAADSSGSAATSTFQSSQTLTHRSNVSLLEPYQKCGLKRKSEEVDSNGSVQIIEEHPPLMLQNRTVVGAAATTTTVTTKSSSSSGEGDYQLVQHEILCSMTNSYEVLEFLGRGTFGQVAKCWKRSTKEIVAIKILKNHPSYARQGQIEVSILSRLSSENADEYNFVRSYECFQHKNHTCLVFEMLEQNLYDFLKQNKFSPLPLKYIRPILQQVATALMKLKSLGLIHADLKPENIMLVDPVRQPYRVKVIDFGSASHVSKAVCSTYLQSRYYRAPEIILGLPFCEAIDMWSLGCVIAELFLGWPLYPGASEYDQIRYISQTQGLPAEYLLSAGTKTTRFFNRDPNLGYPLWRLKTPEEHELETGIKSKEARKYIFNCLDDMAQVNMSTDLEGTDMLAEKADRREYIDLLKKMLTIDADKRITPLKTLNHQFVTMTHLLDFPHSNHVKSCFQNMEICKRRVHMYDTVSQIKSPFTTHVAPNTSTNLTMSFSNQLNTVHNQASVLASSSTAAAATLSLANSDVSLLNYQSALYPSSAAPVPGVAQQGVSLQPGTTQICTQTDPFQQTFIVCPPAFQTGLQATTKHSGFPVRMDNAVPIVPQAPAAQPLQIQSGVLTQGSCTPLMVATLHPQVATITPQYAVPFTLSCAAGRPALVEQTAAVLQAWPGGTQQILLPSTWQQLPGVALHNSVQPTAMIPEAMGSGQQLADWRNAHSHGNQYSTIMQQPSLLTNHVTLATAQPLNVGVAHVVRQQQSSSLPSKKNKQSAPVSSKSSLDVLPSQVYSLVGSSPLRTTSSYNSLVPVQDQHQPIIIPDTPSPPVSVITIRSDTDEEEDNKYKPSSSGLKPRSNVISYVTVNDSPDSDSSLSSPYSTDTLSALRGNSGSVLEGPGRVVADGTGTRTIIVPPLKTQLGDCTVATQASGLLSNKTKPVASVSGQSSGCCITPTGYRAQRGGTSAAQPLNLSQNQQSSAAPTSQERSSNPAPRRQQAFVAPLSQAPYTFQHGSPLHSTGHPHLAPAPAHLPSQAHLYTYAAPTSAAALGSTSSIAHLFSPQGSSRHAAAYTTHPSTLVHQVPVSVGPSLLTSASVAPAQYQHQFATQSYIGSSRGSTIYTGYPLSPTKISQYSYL

[40] = biological target: CDK2/Cyclin A2 (Homo sapiens, UniProt P24941); experiment: Inhibition of CDK2/Cyclin A2 (unknown origin) preincubated for 10 mins followed by substrate/ATP measured after 60 mins by ADP-Glo assay; type: protein-complex assay

In the case of `CC(=O)N1CCC(NC(=O)c2ccc3cc2OCCCCCCOc2cc(ccc2F)-c2nc(ncc2F)N3)CC1`, the Activity [1] is reported as “Non-toxic”, the Activity [2] is reported as “Non-toxic” and the inhibition [3] is reported as “inactive”. For the same compound, the half-life [4] was 252 min, the half-life [5] was 39.3 min and the inhibition [6] was 82.5%. The inhibition [7] was “Active”, the inhibition [8] was “Active” and the half-life [9] was 94.2 min. It also gave an IC50 [10] of 4.3 nM, a bioavailability [11] of 25.8% and an Activity [12] of 10%. For the same compound, the inhibition [13] was “Active”, the Imax [14] was 99.9% and the concentration at 0.5 h [15] was 6650 ng/mL. For the same compound, the IC50 [16] was 480 nM, the inhibition [17] was 23.7% and the Activity [18] was 26%. For the same compound, the inhibition [19] was “Active”, the IC50 [20] was under 10 nM and the bioavailability [21] was 14.3%. The half-life [22] was 97.5 min, the Vd [23] was 30.7 L/kg and the IC50 [24] was 170 nM. The clearance [25] was 13.3 mL/min/kg, the Tmax [26] was 33.6 min and the Activity [27] was “Active”. The inhibition [28] was “Active”, the “Ratio IC50” value [29] was 10 and the microsomal CLint [30] was 14.2 µL/min/mg. For the same compound, the inhibition in vivo at 5 mg/kg [31] was 60%, the IC50 [32] was 121 nM and the Activity [33] was “Non-toxic”. The viability at 2 µM [34] was 51%, the AUC(0-t) [35] was 2530 ng·h/mL and the IC50 [36] was 63.9 nM. The IC50 [37] was under 50 nM, the AUC(0-inf) [38] was 2550 ng·h/mL and the inhibition [39] was 88.5%. It also gave an IC50 [40] of 126 nM.
